Experimental data published in US7473669B2, “Substituted 4,5-dihydro-1,2,4-triazin-6-ones, 1,2,4-triazin-6-ones, and their use as fungicides” (priority 2005, dated 2009).

Key:
Colletotricum lagenarium = assay: Cucumber Anthracnose greenhouse one-day protectant test; type: in vivo; settings: Cucumis sativus, 24 h, cucumber plants, one-day protectant test, 200 ppm application rate; read-out: COLLLA percent control rating
Phytophthora infestans = assay: whole plant or invertebrate; type: in vivo; settings: in Solanum lycopersicum, 24 h, read-out: PHYTIN percent control rating, tomato plants, one-day protectant test, 200 ppm application rate
Erysiphe cichoracaerum = assay: Cucumber Powdery Mildew greenhouse one-day protectant test; type: in vivo; settings: 24 h, cucumber plants, one-day protectant test, 200 ppm application rate, read-out: ERYSCI percent control rating
Leptosphaeria nodorum = assay: Glume Blotch of Wheat greenhouse one-day protectant test; type: in vivo; settings: Parastagonospora nodorum, 24 h; wheat plants, one-day protectant test, 200 ppm application rate; read-out: LEPTNO percent control rating
Pyricularia oryzae = assay: whole plant or invertebrate; type: in vivo; settings: 24 h, read-out: PYRIOR percent control rating
[1] = test system: Puccinia recondita tritici; assay: Leaf Rust of Wheat greenhouse one-day protectant test; type: in vivo; settings: 24 h, wheat plants, one-day protectant test, 200 ppm application rate, read-out: PUCCRT percent control rating

Row | Structure (SMILES) | melting point [°C] | pest or weed control at 200 ppm (Colletotricum lagenarium) [%] | pest or weed control at 200 ppm (Phytophthora infestans) [%] | pest or weed control at 200 ppm (Erysiphe cichoracaerum) [%] | pest or weed control at 200 ppm (Leptosphaeria nodorum) [%] | pest or weed control at 200 ppm (Pyricularia oryzae) [%] | pest or weed control at 200 ppm [1] [%]
1 | O=c1cnc(-c2cc(Br)cc(-c3ccsc3)c2)nn1CC(F)(F)F [Compound 84, 3-(3-Bromo-5-thien-3-ylphenyl)-1-(2,2,2-trifluoroethyl)-1,2,4-triazin-6(1H)-one] | 180 to 182 | 50 to 79 | 0 to 49 | 0 to 49 | 80 to 100 | 80 to 100 | 0 to 49
2 | O=C1CNC(c2cc(-c3ccsc3)cc(-c3ccsc3)c2)=NN1CC(F)(F)F [Compound 61, 3-(3,5-dithien-3-ylphenyl)-1-(2,2,2-trifluoroethyl)-4,5-dihydro-1,2,4-triazin-6(1H)-one] | 180 to 182 | 0 to 49 | 0 to 49 | 0 to 49 | 0 to 49 | 80 to 100 | 80 to 100
3 | CON=C(c1ccccc1)c1cccc(-c2ncc(=O)n(CC(F)(F)F)n2)c1 [Compound 94, 3-{3-[(Z)-(Methoxyimino)phenyl)methyl]phenyl}-1-(2,2,2-trifluoroethyl)-1,2,4-triazin-6(1H)-one] | 127 to 129 | 0 to 49 | 0 to 49 | 0 to 49 | 80 to 100 | 80 to 100 | 80 to 100
4 | O=C1CNC(c2cc(Br)cc(-c3ccsc3)c2)=NN1CC(F)(F)F [Compound 67, 3-(3-Bromo-5-thien-3-ylphenyl)-1-(2,2,2-trifluoroethyl)-4,5-dihydro-1,2,4-triazin-6(1H)-one] | 167 to 169 | 80 to 100 | 0 to 49 | 0 to 49 | 80 to 100 | 80 to 100 | 80 to 100
5 | O=c1cnc(-c2cccc(C(=NOCc3ccccc3)c3ccccc3)c2)nn1CC(F)(F)F [Compound 95] | 139 to 140 | 0 to 49 | 0 to 49 | 0 to 49 | 50 to 79 | 80 to 100 | 0 to 49
6 | O=C1C(SC2CCCCC2)NC(c2cccc(I)c2)=NN1CC(F)(F)F (stereo not drawn) [Compound 49, 5-cyclohexylthio-3-(3-iodophenyl)-1-(2,2,2-trifluoroethyl)-4,5-1,2,4-dihydrotriazin-6(1H)-one] | 172 to 173 | 80 to 100 | 0 to 49 | 0 to 49 | 80 to 100 | 80 to 100 | 80 to 100
7 | O=C1CNC(c2cccc(Cc3ccccc3)c2)=NN1CC(F)(F)F [Compound 73, 3-(3-benzylphenyl)-1-(2,2,2-trifluoroethyl)-4,5-dihydro-1,2,4-triazin-6(1H)-one] | 104 to 106 | 0 to 49 | 0 to 49 | 0 to 49 | 80 to 100 | 80 to 100 | 80 to 100
8 | O=c1cnc(-c2cc(-c3ccsc3)cc(-c3ccsc3)c2)nn1CC(F)(F)F [Compound 80, 3-(3,5-dithien-3-ylphenyl)-1-(2,2,2-trifluoroethyl)-1,2,4-triazin-6(1H)-one] | 189 to 191 | 0 to 49 | 0 to 49 | 0 to 49 | 0 to 49 | 80 to 100 | 50 to 79
9 | C[Si](C)(C)C#CCn1nc(-c2ccc(F)c(Br)c2)ncc1=O [Compound 96, 3-(3-bromo-4-fluorophenyl)-1-(3-trimethylsilanyl-prop-2-ynyl)-1,2,4-triazin-6(1H)-one] | 103 to 105 | 50 to 79 | 0 to 49 | 0 to 49 | 0 to 49 | 80 to 100 | 50 to 79
